Assay results as given in ChEMBL document CHEMBL1139373, “Metabolic soft spot identification and compound optimization in early discovery phases using MetaSite and LC-MS/MS validation” (J Med Chem, 2009).

Assay: Metabolic stability in human liver microsomes assessed as intrinsic clearance per mg of protein
Details: liver microsomes
In the case of CN1CC(=O)N2[C@H](c3ccc4c(c3)OCO4)c3[nH]c4ccccc4c3C[C@@H]2C1=O, the microsomal CLint is reported as 49 µL/min/mg. Compound CC(=O)CC(c1ccc([N+](=O)[O-])cc1)c1c(O)c2ccccc2oc1=O (stereo unspecified) [ACENOCOUMAROL] has a microsomal CLint of 37 µL/min/mg. Work on CC(C)COCC(CN(Cc1ccccc1)c1ccccc1)N1CCCC1 (stereo unspecified) [BEPRIDIL] yielded a microsomal CLint of 94 µL/min/mg. c1ccc(C2(c3ccccc3)CC2C2=NCCN2)cc1 (stereo unspecified) [CIFENLINE] showed a microsomal CLint of 28 µL/min/mg. For CN(C)CCCC1(c2ccc(F)cc2)OCc2cc(C#N)ccc21 (stereo unspecified) [CITALOPRAM], the microsomal CLint was 36 µL/min/mg. In the case of c1ccc2c(c1)Sc1ccccc1N2CC1CN2CCC1CC2 (stereo unspecified) [MEQUITAZINE], the microsomal CLint is reported as 34 µL/min/mg. CN(C)CCOc1ccc(/C(=C(/CCCl)c2ccccc2)c2ccccc2)cc1 [TOREMIFENE] showed a microsomal CLint of 31 µL/min/mg. For CC(/C=C/C(=O)NO)=C\[C@@H](C)C(=O)c1ccc(N(C)C)cc1 [TRICHOSTATIN], the microsomal CLint was 107 µL/min/mg. Work on CN1[C@@H]2CC[C@H]1C[C@@H](OC(=O)c1c[nH]c3ccccc13)C2 [TROPISETRON] yielded a microsomal CLint of 22 µL/min/mg. COc1ccc(C(CN(C)C)C2(O)CCCCC2)cc1 (stereo unspecified) [VENLAFAXINE] gave a microsomal CLint of 59 µL/min/mg.

Same assay, conditions: microsomes
Compound COc1ccccc1OCCNCC(O)COc1cccc2[nH]c3ccccc3c12 (stereo unspecified) [CARVEDILOL] has a microsomal CLint of 235 µL/min/mg. CN(C)CCCN1c2ccccc2Sc2ccc(Cl)cc21 [CHLORPROMAZINE] gave a microsomal CLint of 117 µL/min/mg. O=c1c(O)c(-c2ccc(O)cc2)oc2cc(O)cc(O)c12 [KAEMPFEROL] showed a microsomal CLint of 269 µL/min/mg. With CNC1(c2ccccc2Cl)CCCCC1=O (stereo unspecified) [KETAMINE] the microsomal CLint was 136 µL/min/mg. Work on CNCCCC12CCC(c3ccccc31)c1ccccc12 [MAPROTILINE] yielded a microsomal CLint of 31 µL/min/mg. Cc1ncc2n1-c1ccc(Cl)cc1C(c1ccccc1F)=NC2 [MIDAZOLAM] showed a microsomal CLint of 554 µL/min/mg.
